In patent publication US5658917A, “Isoquinolines having adenosine uptake inhibitor activity” (Kyowa Hakko Kogyo Co., Ltd., priority 1993, dated 1997):

What was measured:
[1] = tested on: [^3 H]-adenosine uptake by washed erythrocytes; assay: Inhibitory effect on [^3 H]-adenosine uptake (washed erythrocytes); type: cell-based, human (healthy male adult); conditions: Erythrocyte; human washed erythrocytes; 1 hour preincubation at room temperature; 10 seconds uptake; read-out: [^3 H]-Adenosine Uptake Inhibition IC50
Protocol: Test Example 1 Inhibitory Effect on [^3 H]-Adenosine Uptake
[…] To 100 μl of an erythrocyte suspension (2.5×10^9 /ml) was added 10 μl of a 21% DMSO solution of a test compound. After allowing the suspension to stand at room temperature for 1 hour, 100 μl of a [^3 H]-adenosine solution was added thereto. Ten seconds later, 200 μl of a dilazep solution (1 mg/ml) was added to stop the reaction. The erythrocytes were dissolved in Triton X-100, and the uptake amount of ^3 H was measured with a liquid scintillation counter. The concentration of the test compound which inhibits the [^3 H]-adenosine uptake by 50% (IC50) was calculated.

[2] = Inhibitory effect on ischemic paw edema in mice; type: in vivo, mouse (ddY-strain, male); conditions: 30 mg/kg orally 1 hour before 20 min ischemia; for Paw Edema Supression Rate After 20 minutes: 20 minutes after blood recirculation; for Paw Edema Supression Rate After 40 minutes: 40 minutes after blood recirculation; for Paw Edema Supression Rate After 60 minutes: 60 minutes after blood recirculation
Description: Test Example 3 Inhibitory Effect on Ischemic Paw Edema in Mice
Ischemia followed by reperfusion in the limb of a mouse induces paw edema due to membrane injury in which active oxygen is involved [Arzneim.-Forsch., 41, 469-474 (1991)]. In general, peroxidation of membrane lipid and calcium influx into cells play roles in ischemia-reperfusion injury [Life Science, 29, 1289-1295 (1981); Japan J. Pharmacol., 52, 553-562 (1990)]. It is active oxygen production that triggers these factors, and the source of active oxygen includes endothelial cells and leukocytes [J. Mol. Cell Cardiol., 20 (Suppl. II), 55-63 (1988); Blood, 73, 301-306 (1989)]. […] J. Physiol., 257, H1334-1339 (1989); J. Immunol., 135, 1366-1371 (1985)]. Accordingly, it is believed that a compound effective on an ischemic podedema model in mice as hereinafter described would provide a convenient and useful model for evaluating an adenosine uptake inhibitor.
Experiments were conducted in accordance with the method described in Arzneim.-Forsch., 41, 469-474 (1991). A test compound was suspended in water and orally given to grouped male mice of ddY-strain weighing 25 to 30 g at a dose of 30 mg/kg. One hour later, the left hind limb was bound with a rubber band for 20 minutes to cause ischemia, and 20, 40 and 60 minutes after blood recirculation, the paw thickness was measured with a pair of calipers (Digimatic Caliper manufactured by Mitsutoyo K.K.). The paw edema was determined as the difference in thickness between the left hind paw (ischemia-treated) and the non-treated right one. Each result was expressed in terms of percent suppression of edema in a test compound group on the basis of the edema in a control group.

[3] = target: T1, [^3 H]-Nitrobenzylthioinosine (NBI) binding, cerebral cortex tissue homogenate (Cavia porcellus, UniProt H0V4R7); assay: Inhibitory effect on [^3 H]-nitrobenzylthioinosine (NBI) binding; set-up: species or system guinea pig (Hartley strain, male); conditions: guinea pig cerebral cortex; 1.5 nM [^3 H]-NBI; 25° C., 30 minutes; Cheng-Prusoff
T1 construct: The cerebral cortex of a male guinea pig of Hartley strain was homogenized; from tissue; host or cells: guinea pig (male, Hartley strain) cerebral cortex, washed membrane suspension
T1 sequence (H0V4R7 1-461): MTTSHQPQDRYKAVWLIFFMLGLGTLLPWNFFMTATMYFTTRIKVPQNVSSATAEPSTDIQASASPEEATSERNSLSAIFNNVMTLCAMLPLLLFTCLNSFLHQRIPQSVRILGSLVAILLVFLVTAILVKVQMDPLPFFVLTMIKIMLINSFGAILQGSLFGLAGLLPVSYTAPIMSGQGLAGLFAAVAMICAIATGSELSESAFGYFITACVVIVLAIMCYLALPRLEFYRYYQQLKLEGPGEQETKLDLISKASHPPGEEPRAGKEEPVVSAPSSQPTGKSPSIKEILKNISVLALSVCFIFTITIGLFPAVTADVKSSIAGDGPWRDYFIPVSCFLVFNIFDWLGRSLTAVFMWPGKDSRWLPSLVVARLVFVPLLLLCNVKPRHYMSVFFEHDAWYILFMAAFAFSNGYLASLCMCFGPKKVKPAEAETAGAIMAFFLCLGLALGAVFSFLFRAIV
Protocol: Test Example 2 Inhibitory Effect on [^3 H]-Nitrobenzylthioinosine (NBI) Binding (an indication of adenosine uptake inhibitory activity)
The cerebral cortex of a male guinea pig of Hartley strain was homogenized with an ice-cooled 50 mM tris-HCl buffer (pH 7.4) in an amount of 25 times (w/v) that of the tissue. The homogenate was centrifuged (30,000×g, 4° C., 20 mins.), and the supernatant was discarded. To the precipitate was added the same amount of the buffer, followed by homogenization and then centrifugation in the same manner as above. The obtained precipitate was suspended in 20 times as much buffer as the precipitate to prepare a suspension for testing.
To a DMSO solution of a test compound were added 1.5 nM of [^3 H]-NBI and 5 mg (wet basis) of the tissue homogenate, and the mixture was allowed to stand at 25° C. for 30 minutes. To the mixture was added 4 ml of an ice-cooled buffer, followed by rapid filtration with suction through a glass filter (GF/C, produced by Whatman Ltd.) or a Ready filter (produced by Beckman Co.) to stop the reaction. The filter was transferred to a scintillation vial, and after drying, Scintisol EX-H was added thereto. The radioactivity was measured with a liquid scintillation counter. The binding inhibitory activity was expressed in terms of an inhibition constant (Ki value) as calculated according to Cheng-Prusoff's formula.

ddY-strain male mice = assay: Acute toxicity test; type: in vivo; conditions: mortality seven days after administration
Description: Test Example 4 Acute Toxicity Test
A test compound was intraperitoneally or orally administered to groups of ddY-strain male mice weighing 20±1 g, each group consisting of three mice.

| IC50 [1] | Ki [3] | Structure (SMILES) | also measured |
| --- | --- | --- | --- |
| 0.127 µM | – | COc1cc2nc(C)nc(N3CCC(n4c(=O)c5cc(C)ccc5n(C)c4=O)CC3)c2cc1OC [Compound 80, 3-[1-(6,7-Dimethoxy-2-methyl-4-quinazolinyl)-4-piperidinyl]-1,2,3,4-tetrahydro-1,6-dimethyl-2,4-dioxo-quinazoline] | – |
| 0.295 µM | – | COc1cc2ncnc(N3CCC(n4c(=O)c5cc([N+](=O)[O-])ccc5n(Cc5ccccc5)c4=O)CC3)c2cc1OC [Compound 8, 1-Benzyl-3-[1-(6,7-dimethoxy-4-quinazolinyl)-4-piperidinyl]-1,2,3,4-tetrahydro-6-nitro-2,4-dioxo-quinazoline] | – |
| 0.157 µM | 0.011 µM | COc1ccc2c(c1)c(=O)n(C1CCN(c3ncnc4cc(OC)c(OC)cc34)CC1)c(=O)n2C [Compound 69, 3-[1-(6,7-Dimethoxy-4-quinazolinyl)-4-piperidinyl]-1,2,3,4-tetrahydro-6-methoxy-1-methyl-2,4-dioxo-quinazoline] | – |
| 0.171 µM | – | CCCc1ccc2c(c1)c(=O)n(C1CCN(c3ncnc4cc(OC)c(OC)cc34)CC1)c(=O)n2C [Compound 55, 3-[1-(6,7-Dimethoxy-4-quinazolinyl)-4-piperidinyl]-1,2,3,4-tetrahydro-1-methyl-2,4-dioxo-6-propyl-quinazoline] | – |
| 0.054 µM | 0.0069 µM | COc1cc2ncnc(N3CCC(n4c(=O)c5cc(Br)ccc5n(C)c4=O)CC3)c2cc1OC [Compound 45, 6-Bromo-3-[1-(6,7-dimethoxy-4-quinazolinyl)-4-piperidinyl]-1,2,3,4-tetrahydro-1-methyl-2,4-dioxo-quinazoline] | – |
| 0.088 µM | – | COc1cc2ncnc(N3CCC(n4c(=O)c5cc(C(C)=O)ccc5n(C)c4=O)CC3)c2cc1OC [Compound 63, 6-Acetyl-3-[1-(6,7-dimethoxy-4-quinazolinyl)-4-piperidinyl]-1,2,3,4-tetrahydro-1-methyl-2,4-dioxo-quinazoline] | – |
| 0.462 µM | – | CCOC(=O)Cn1c(=O)n(C2CCN(c3ncnc4cc(OC)c(OC)cc34)CC2)c(=O)c2cc([N+](=O)[O-])ccc21 [Compound 6, 3-[1-(6,7-Dimethoxy-4-quinazolinyl)-4-piperidinyl]-1-ethoxycarbonylmethyl-1,2,3,4-tetrahydro-6-nitro-2,4-dioxoquinazoline] | – |
| 0.038 µM | 0.015 µM | COc1cc2ncnc(N3CCC(n4c(=O)[nH]c5ccc([N+](=O)[O-])cc5c4=O)CC3)c2cc1OC [Compound 24, 3-[1-(6,7-Dimethoxy-4-quinazolinyl)-4-piperidinyl]-1,2,3,4-tetrahydro-6-nitro-2,4-dioxoquinazoline] | – |
| 0.054 µM | 0.012 µM | COc1cc2ncnc(N3CCC(n4c(=O)c5cc(C)ccc5n(C)c4=O)CC3)c2cc1OC [Compound 50, 3-[1-(6,7-Dimethoxy-4-quinazolinyl)-4-piperidinyl]-1,2,3,4-tetrahydro-1,6-dimethyl-2,4-dioxoquinazoline] | – |
| 0.042 µM | 0.018 µM | COc1cc2ncnc(N3CCC(n4c(=O)c5cc([N+](=O)[O-])ccc5n(C)c4=O)CC3)c2cc1OC [Compound 1, 3-[1-(6,7-Dimethoxy-4-quinazolinyl)-4-piperidinyl]-1,2,3,4-tetrahydro-1-methyl-6-nitro-2,4-dioxoquinazoline] | – |

| Structure (SMILES) | IC50 [1] | Ki [3] | also measured |
| --- | --- | --- | --- |
| CCCn1c(=O)n(C2CCN(c3ncnc4cc(OC)c(OC)cc34)CC2)c(=O)c2cc([N+](=O)[O-])ccc21 [Compound 3, 3-[1-(6,7-Dimethoxy-4-quinazolinyl)-4-piperidinyl]-1,2,3,4-tetrahydro-6-nitro-2,4-dioxo-1-propyl-quinazoline] | 0.062 µM | 0.0043 µM | Paw Edema Supression Rate After 20 minutes [2]: 4.8 ± 4.40%; Paw Edema Supression Rate After 40 minutes [2]: 11.6 ± 2.68%; Paw Edema Supression Rate After 60 minutes [2]: 14.9 ± 3.58%; minimum lethal dose (MLD) i.p. (ddY-strain male mice): > 100 mg/kg; minimum lethal dose (MLD) p.o. (ddY-strain male mice): > 300 mg/kg |
| CCn1c(=O)n(C2CCN(c3ncnc4cc(OC)c(OC)cc34)CC2)c(=O)c2cc([N+](=O)[O-])ccc21 [Compound 2, 3-[1-(6,7-Dimethoxy-4-quinazolinyl)-4-piperidinyl]-1-ethyl-1,2,3,4-tetrahydro-6-nitro-2,4-dioxoquinazoline] | 0.103 µM | 0.018 µM | Paw Edema Supression Rate After 20 minutes [2]: 4.1 ± 2.98%; Paw Edema Supression Rate After 40 minutes [2]: 9.0 ± 3.79%; Paw Edema Supression Rate After 60 minutes [2]: 15.5 ± 4.09%; minimum lethal dose (MLD) i.p. (ddY-strain male mice): > 100 mg/kg; minimum lethal dose (MLD) p.o. (ddY-strain male mice): > 300 mg/kg |
